Values of other authors as cited in US20030166007A1, “Chemical proteomics” (MDS Proteomics Inc., priority 2002, published 2003).

Experiments:
[1] = target: T1, muscle glycogen phosphorylase b (Homo sapiens, UniProt P11217); details: cited from earlier work
T1 sequence (P11217 1-842): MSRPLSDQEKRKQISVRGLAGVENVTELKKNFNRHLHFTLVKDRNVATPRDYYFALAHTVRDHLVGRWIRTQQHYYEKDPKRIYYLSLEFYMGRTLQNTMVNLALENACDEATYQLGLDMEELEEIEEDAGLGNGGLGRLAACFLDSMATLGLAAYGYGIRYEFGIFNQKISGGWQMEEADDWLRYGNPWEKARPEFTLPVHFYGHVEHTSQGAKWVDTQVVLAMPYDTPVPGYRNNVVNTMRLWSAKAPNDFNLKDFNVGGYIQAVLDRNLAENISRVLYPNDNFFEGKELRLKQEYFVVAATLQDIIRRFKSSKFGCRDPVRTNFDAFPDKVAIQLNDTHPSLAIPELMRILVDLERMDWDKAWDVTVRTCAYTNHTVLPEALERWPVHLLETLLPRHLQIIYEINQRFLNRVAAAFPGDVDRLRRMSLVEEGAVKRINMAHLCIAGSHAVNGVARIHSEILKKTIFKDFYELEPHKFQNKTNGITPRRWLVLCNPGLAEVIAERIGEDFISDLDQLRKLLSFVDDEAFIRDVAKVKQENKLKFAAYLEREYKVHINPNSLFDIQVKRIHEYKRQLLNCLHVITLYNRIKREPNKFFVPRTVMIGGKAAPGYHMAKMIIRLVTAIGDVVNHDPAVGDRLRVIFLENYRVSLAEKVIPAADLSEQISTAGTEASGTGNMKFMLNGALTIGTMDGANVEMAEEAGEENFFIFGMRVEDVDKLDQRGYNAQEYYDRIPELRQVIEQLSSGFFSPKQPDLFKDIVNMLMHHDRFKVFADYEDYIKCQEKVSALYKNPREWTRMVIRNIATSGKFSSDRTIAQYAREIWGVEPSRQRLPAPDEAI

[2] = target: Amido phosphoribosyltransferase (Homo sapiens, UniProt Q06203); details: in vitro assays; cited from earlier work
Amido phosphoribosyltransferase, sequence (Q06203 12-517, species assumed): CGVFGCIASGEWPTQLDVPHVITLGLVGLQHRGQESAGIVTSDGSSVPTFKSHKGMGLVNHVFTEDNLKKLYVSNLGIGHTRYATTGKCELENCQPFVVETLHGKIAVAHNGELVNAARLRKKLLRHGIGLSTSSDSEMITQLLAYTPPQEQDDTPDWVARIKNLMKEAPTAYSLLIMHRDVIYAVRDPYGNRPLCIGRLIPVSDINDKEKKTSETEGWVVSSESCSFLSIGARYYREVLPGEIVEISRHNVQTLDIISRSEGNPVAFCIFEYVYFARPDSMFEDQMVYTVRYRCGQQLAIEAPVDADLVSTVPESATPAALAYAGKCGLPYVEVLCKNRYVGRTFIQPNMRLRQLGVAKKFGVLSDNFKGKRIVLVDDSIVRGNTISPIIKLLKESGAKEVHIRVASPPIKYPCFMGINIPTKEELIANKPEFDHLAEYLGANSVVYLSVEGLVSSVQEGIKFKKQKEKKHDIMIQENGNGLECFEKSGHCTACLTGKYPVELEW

| SMILES | inhibition of muscle glycogen phosphorylase b [1] | inhibition of amido-phosphoribosyltransferase [2] |
| --- | --- | --- |
| CN(Cc1cnc2nc(N)nc(N)c2n1)c1c(Cl)cc(C(=O)N[C@@H](CCC(=O)O)C(=O)O)cc1Cl [3′,5′-dichloroMethotrexate] | reversible inhibitors | – |
| CN(Cc1cnc2nc(N)nc(N)c2n1)c1ccc(C(=O)NC(CCC(=O)O)C(=O)O)cc1Cl (stereo not drawn) [3′-chloroMethotrexate] | reversible inhibitors | – |
| CN(Cc1cnc2nc(N)nc(N)c2n1)c1ccc(C(=O)N[C@@H](CCC(=O)N[C@@H](CCC(=O)N[C@@H](CCC(=O)N[C@@H](CCC(=O)N[C@@H](CCC(=O)O)C(=O)O)C(=O)O)C(=O)O)C(=O)O)C(=O)O)cc1 [MTX-Glu5] | – | inhibited |
